The target in test [1] is T1, porcine leukocyte 12/15-lipoxygenase (Sus scrofa, UniProt P16469).
T1 sequence (P16469 1-663): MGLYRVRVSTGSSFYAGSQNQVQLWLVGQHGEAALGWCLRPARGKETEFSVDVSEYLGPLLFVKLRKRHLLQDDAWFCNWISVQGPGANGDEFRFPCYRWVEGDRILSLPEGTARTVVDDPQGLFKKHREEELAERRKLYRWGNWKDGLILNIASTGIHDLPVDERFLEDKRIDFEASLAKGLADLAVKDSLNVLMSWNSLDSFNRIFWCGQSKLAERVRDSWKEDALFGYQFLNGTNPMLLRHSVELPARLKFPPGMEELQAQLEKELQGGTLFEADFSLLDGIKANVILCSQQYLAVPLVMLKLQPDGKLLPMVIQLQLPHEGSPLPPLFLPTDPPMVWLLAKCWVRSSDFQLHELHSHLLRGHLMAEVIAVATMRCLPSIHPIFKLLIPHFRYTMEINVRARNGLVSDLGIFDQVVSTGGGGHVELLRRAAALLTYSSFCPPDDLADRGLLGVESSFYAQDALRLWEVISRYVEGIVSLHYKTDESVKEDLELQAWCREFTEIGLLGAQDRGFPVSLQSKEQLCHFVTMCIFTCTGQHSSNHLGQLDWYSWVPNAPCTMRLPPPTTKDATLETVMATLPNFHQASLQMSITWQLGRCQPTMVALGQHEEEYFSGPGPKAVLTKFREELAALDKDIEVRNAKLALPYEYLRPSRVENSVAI
The test is described as follows: 12/15-Lipoxygenase enzyme assay. Format: biochemical. The settings on record: 70 μM arachidonic acid, pH 7.4; read-out: IC50, inhibition of 12/15-Lipoxygenase. The procedure: This procedure was used for measuring the enzymatic activity of porcine leukocyte 12/15-lipoxygenase using a calorimetric method based on the ferric oxidation of xylenol orange.
Porcine Leukocyte 12/15-lipoxygenase (Cayman Cat # 60300) was used in this assay. Test compound and/or vehicle was added to 1.3U 12/15-lipoxygenase in 50 mM Tris-HCl buffer, pH 7.4. The reaction was initiated by addition of 70 μM arachidonic acid in Tris-HCl buffer, pH 7.4, and terminated after a 10 minute incubation at room temperature by addition of FOX reagent (25 mM sulphuric acid, 100 μM xylenol orange, 100 μM iron (II) sulphate, methanol:water 9:1). The yellow color of acidified xylenol orange was converted to a blue color by the lipid hydroperoxide-mediated oxidation of Fe^2+ ions and the interaction of the resulting Fe^3+ ions with the dye. The complex was allowed to form during a 1 hour incubation at room temperature with shaking. Absorbance of the Fe^3+ complex was then measured at […] using a spectrophotometer.
Negative controls contained enzyme during the incubation step but substrate was not added until after the FOX reagent.
Compounds are screened at 5 concentrations in triplicate starting at 10 μM

Test [2] deals with LTB4 production in heparinized whole blood. Put plainly: Inhibition of LTB4 production in blood. The format is cell-based, rat or mouse. As to conditions: 20 μM A23187, read-out: EC50, protection against LTB4. The method in brief:
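Heparinized rat or mouse whole blood preincubated with test agent 10 min at 37°C, then stimulated with calcium ionophore A23187 (20 μM final) for 30 min. Plasma methanol-precipitated and LTB4 measured by EIA; percent inhibition versus vehicle used to derive IC50.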

Test [3] addresses T2, human recombinant 5-lipoxygenase (Homo sapiens, UniProt P09917).
T2 construct: purchased Cayman 60402
T2 sequence (P09917 1-674): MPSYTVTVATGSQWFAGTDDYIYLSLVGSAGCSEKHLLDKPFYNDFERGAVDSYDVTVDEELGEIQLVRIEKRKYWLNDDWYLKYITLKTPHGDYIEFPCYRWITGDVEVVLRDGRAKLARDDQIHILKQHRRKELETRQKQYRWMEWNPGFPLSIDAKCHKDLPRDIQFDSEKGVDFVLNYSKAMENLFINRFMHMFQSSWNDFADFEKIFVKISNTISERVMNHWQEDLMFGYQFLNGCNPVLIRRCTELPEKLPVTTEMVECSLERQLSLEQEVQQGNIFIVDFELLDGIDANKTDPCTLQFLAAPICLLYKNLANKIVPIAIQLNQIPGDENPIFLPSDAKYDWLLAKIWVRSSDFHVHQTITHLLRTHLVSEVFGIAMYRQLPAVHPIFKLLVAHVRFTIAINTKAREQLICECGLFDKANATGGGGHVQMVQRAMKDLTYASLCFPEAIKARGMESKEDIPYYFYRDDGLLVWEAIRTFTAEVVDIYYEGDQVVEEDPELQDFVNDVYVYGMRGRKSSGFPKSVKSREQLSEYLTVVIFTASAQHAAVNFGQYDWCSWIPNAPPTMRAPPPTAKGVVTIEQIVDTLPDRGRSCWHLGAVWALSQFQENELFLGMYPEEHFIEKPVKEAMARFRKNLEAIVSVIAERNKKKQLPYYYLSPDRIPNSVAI
Put plainly: 5-Lipoxygenase enzyme assay. The format is biochemical. The settings on record: 70 μM arachidonic acid, pH 7.4. The method, boiled down:
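Human recombinant 5-LO (0.5 U) with compound in 50 mM Tris-HCl pH 7.4 reacted with 70 μM arachidonic acid for 10 min at room temperature. Hydroperoxide formation was read via FOX xylenol orange complex at 620 nm after 1 h; compounds at 5 concentrations from 10 μM, in triplicate.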

Structures are written as SMILES. A value given as a limit tells only on which side of the number the result lay.

Our source for the IC50 and EC50 values is patent US7875607B2, “7,8-bicycloakyl-chroman derivatives” (Ampere Life Sciences, Inc., priority 2004, dated 2011).

In the case of `CC1(C)CCc2cc(O)c3c(c2O1)C1CCC3CC1` [2,2-Dimethyl-3,4,7,8,9,10-hexahydro-7,10-ethano-2H-benzo[h]chromen-6-ol], the IC50 in test [1] was ≤ 10 µM; in test [3], ≤ 5 µM. In test [2], the EC50 is ≤ 10 µM.
With `CC1(C)C=Cc2cc(O)c3c(c2O1)C1CCC3CC1` [2,2-Dimethyl-7,8,9,10-tetrahydro-7,10-ethano-2H-benzo[h]chromen-6-ol], the IC50 in test [1] is ≤ 10 µM; in test [3], ≤ 5 µM.
On to `CC1(CCCCl)CCc2cc(O)c3c(c2O1)C1CCC3C1` (stereo not drawn) [2-(3-Chloro-propyl)-2-methyl-3,4,7,8,9,10-hexahydro-7,10-methano-2H-benzo[h]chromen-6-ol], for which the concentration giving a half-maximal response (EC50) in test [2] is ≤ 10 µM. The IC50 in test [3] is ≤ 5 µM.
`CC(C)CSCCCC1(C)CCc2cc(O)c3c(c2O1)C1CCC3C1` (stereo not drawn) [2-(3-isobutylsulfanyl-propyl)-2-methyl-3,4,7,8,9,10-hexahydro-7,10-methano-2H-benzo[h]chromen-6-ol]: the IC50 in test [1] was ≤ 10 µM. Further, the EC50 in test [2] was ≤ 10 µM.
Take `CC1(CCCSc2nccs2)CCc2cc(O)c3c(c2O1)C1CCC3C1` (stereo not drawn) [2-Methyl-2-[3-(thiazol-2-ylsulfanyl)-propyl]-3,4,7,8,9,10-hexahydro-7,10-methano-2H-benzo[h]chromen-6-ol]: the figures for the IC50 in test [1] and in test [3] were ≤ 10 µM and ≤ 5 µM, respectively. Moreover, in test [2], the EC50 is ≤ 10 µM.

A word on the EC50: it is the concentration needed to bring the measured effect to its halfway point.
